Measurements as given in US11576887B2, “Nitro-oleic acid controlled release platform to induce regional angiogenesis in abdominal wall repair” (University of Pittsburgh—Of the Commonwealth System of …, priority 2017, dated 2023).
Entries after “also recorded” stand apart in the source; their conditions may differ.

How the values were obtained:
[1] = NO2-OA controlled release in vitro from PLGA microparticles and scaffolds in lipase solution; type: physicochemical
Protocol: NO2-OA in microparticles and scaffolds was extracted by dissolving the samples in 200 μL, HFIP with 0.5 pmol NO2−^[13C18]OA internal standard, and extracted three times with 1 mL methanol, each time vortexing and centrifuging at 15,000 xg for 10 min at 4° C. Then, the collected methanol was dried under a stream of nitrogen, reconstituted in 100 μL methanol and analyzed by high performance liquid chromatography-electrospray ionization-tandem mass spectrometry (HPLC-ESI-MS/MS). Controlled release (n=3) of NO2-OA in microparticles (FIG. 1D) and scaffolds (FIGS. 3B) was studied in 50 mM phosphate buffer, pH 7.4 with 0.2 mg/mL porcine lipase at 37° C. Aliquots were collected at various time points, spiked with 15 pmol NO2−^[13C18]OA, 1 mL acetonitrile was added and then, samples were vortexed, centrifuged and analyzed by HPLC-ESI-MS/MS. At each time point a fresh incubating solution was utilized.
Analysis of NO2-OA was performed by HPLC-ESI-MS/MS. […] NO2-OA was analyzed in negative mode with the following parameters: declustering potential (DP)—75V, collision energy (CE)—35 eV, desolvation temperature of 700° C., and a multiple reaction monitoring (MRM) transition 326.3/46. Quantification of NO2-OA in samples was performed by stable isotopic dilution analysis using a NO2-OA calibration curve in the presence of NO2-[^13C18]OA internal standard (MRM 344.3/46).

[2] = tested on: rat abdominal wall partial thickness defect; test: Blood vessel morphological assessment (MT staining, CD31/αSMA immunofluorescence) of 8 wk explants; type: in vivo, Sprague-Dawley rats; settings: rat abdominal wall defect model, 8 wk end-point
Excerpt: Adult female Sprague-Dawley rats 10-12 wk old, ˜250 g in weight (Harlan Sprague Dawley Inc., Indianapolis, Ind., USA) were used for the abdominal wall repair procedure. The experiment was designed to assess the effects of NO2-FA controlled release on angiogenesis. Therefore, a partial wall defect was preferred to a full wall defect model, this enabled evaluation of the impact of drug release on the tissue underneath the abdominal wall patch. The surgical protocol was adapted from a procedure previously established Lai et al. Peritoneal Regeneration Induced by an Acellular Bovine Pericardial Patch in the Repair of Abdominal Wall Defects. Journal of Surgical Research 127, 85, 2005. In brief, inhalation of 1.25-2.5% (maintenance-induction) isoflurane with 100% oxygen was adopted as anesthetic. The skin was shaved and the surgical field was prepared by sterilization with povidone-iodine solution, the rats were positioned in dorsal recumbency on a heating blanket, the operating environment was kept sterile during the procedure. […]
Regional angiogenesis was investigated by combining morphological with topological information. Morphological assessment included quantification of blood vessel/mm^2 and vessel type and was performed with two distinct experiments: histological (FIG. 7, 9) and immunofluorescence assessment (FIG. 8). […]

[3] = tested on: rat abdominal wall partial thickness defect; test: Rat abdominal wall partial thickness defect repair, histological assessment of 8 wk explants; type: in vivo, Sprague-Dawley rats
Protocol: At 8 wk post-implantation samples were retrieved, fixed in 10% formalin solution for ≥24 h, embedded in paraffin and serially sectioned into specimens 10 μm in thickness. Next, hematoxylin and eosin (H&E) and Masson' trichrome (MT) staining of pre implantation scaffolds and explants were utilized to evaluate: polymeric fiber volume, newly formed tissue, cellular infiltration, and scar area (FIG. 4-FIG. 5). In order to assess the foreign body response a custom-made algorithm, developed in Matlab (Mathwork, Natick Mass.), was utilized to segment and quantify collagen rich areas (FIG. 4G-4H). The algorithm is based on a two-phase iterative process known as k means clustering. In step one, given an integer k and an array of data, k cluster centroids were identified minimizing the total squared Euclidean distance between each pixel and its closest RGB centroid. With k=4, the algorithm segmented each image into 4 color groups corresponding to background, muscle tissue, collagen or de-novo ECM, and scaffold.
At the macroscopic scale, cross sections were utilized to quantify explant thickness. NIH Image J was utilized to identify the explant central line, draw equi-spaced segments (n=10) perpendicular to this line intersecting the abdominal wall border, and calculate the mean of their lengths. This measure was coupled with in situ explant visual inspection (FIG. 6). […]

CCCCCCCC/C(=C\CCCCCCCC(=O)O)[N+](=O)[O-] [NO2-OA, 10-nitro-9-trans-octadecenoic acid]
NO2-OA release profile from PLGA microparticles ([1]; 50 mM phosphate buffer pH 7.4, 0.2 mg/mL porcine lipase, 37° C, effect of microparticle size): sigmoidal | duration of controlled NO2-OA release from PLGA microparticles ([1]; NO2-OA (1mM), particle size 1-50 μm range): up to 7 days | regional angiogenesis / neovascularization [2]: additional effect; also recorded: promotes neovascularization; also recorded: significantly improved regional angiogenesis; also recorded: significantly enhanced regional angiogenesis | abdominal wall thickness of explants ([3]; 8 wk, compared with healthy native rat abdominal wall): significantly increased wall thickness | fibrotic response ([3]; rat abdominal wall defect model): significantly reduce fibrotic response
